This assay has as its target T1, hGlyT2 (Homo sapiens, UniProt Q9Y345).
T1 construct: host or cells: HEK293 cells stably expressing hGlyT2; crude membrane fractions
T1 sequence (Q9Y345 1-797): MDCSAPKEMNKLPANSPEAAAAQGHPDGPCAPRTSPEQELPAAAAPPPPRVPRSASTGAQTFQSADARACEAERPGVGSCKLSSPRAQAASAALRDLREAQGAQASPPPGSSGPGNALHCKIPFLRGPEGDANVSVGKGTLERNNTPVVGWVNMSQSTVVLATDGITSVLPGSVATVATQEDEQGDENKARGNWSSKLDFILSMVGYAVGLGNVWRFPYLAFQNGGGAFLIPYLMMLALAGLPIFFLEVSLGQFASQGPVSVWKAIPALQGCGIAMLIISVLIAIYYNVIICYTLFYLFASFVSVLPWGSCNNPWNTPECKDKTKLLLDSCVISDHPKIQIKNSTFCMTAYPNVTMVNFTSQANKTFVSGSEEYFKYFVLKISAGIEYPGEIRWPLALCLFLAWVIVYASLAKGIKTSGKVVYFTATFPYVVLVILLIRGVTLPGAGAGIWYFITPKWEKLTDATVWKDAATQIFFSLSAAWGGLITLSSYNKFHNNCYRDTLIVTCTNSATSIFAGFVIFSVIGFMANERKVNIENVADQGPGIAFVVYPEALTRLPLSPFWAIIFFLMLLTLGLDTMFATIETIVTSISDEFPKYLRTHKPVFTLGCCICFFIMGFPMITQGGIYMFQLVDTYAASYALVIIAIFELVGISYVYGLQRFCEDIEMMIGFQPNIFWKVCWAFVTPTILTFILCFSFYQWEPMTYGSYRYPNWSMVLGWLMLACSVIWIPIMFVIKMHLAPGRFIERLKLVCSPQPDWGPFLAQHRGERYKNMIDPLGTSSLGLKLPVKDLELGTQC
Description: GlyT2 MS Binding Assays: saturation experiments with Org25543. The settings on record: mean±SEM, n=3. As for the experimental part: For the further characterization of the binding of Org25543 to GlyT2 saturation experiments were performed. To determine total binding of Org25543 GlyT2 membrane fractions were incubated with the reporter ligand in eight different concentrations (0.4–150 nM) and the samples analyzed after the general workup by LC‐ESI‐MS/MS as described above. Nonspecific binding was obtained from experiments that were completely analogous to the former except that protein subjected to a prior heat‐shock was used. Quantification of Org25543 in total binding samples could be realized down to the lowest nominal concentration level (0.4 nM). For nonspecific binding samples the quantification was possible down to 2 nM nominal marker concentration. For nominal marker concentrations lower than 2 nM the concentrations of Org25543 lay below the LLOQ. As it is generally acknowledged that nonspecific binding is related to nominal marker concentration in a linear fashion, ^[46] data points below this concentration were calculated by extrapolation after linear regression analysis of the data points for nonspecific binding at nominal marker concentrations from 2 to 150 nM.
For preparation of GlyT2 membrane preparations HEK293 cells, stably expressing the hGlyT2 with a confluence ≥90 %, were used (kindly provided by AbbVie (Wiesbaden, Germany)). […]

Data on one compound can be found in publication PMC7821181, “MS Binding Assays for Glycine Transporter 2 (GlyT2) Employing Org25543 as Reporter Ligand” (Chemmedchem, 2020).

Regarding `COc1cc(C(=O)NCC2(N(C)C)CCCC2)cc(OC)c1OCc1ccccc1` [Org25543, N‐[[1‐(dimethylamino)cyclopentyl]methyl]‐3,5‐dimethoxy‐4‐(phenylmethoxy)benzamide], the “maximum density of binding sites (B max)” value (HEK293 hGlyT2 membrane preparation) is listed as 26.15±1.03 pmol (mg protein)^−1. Further, the Kd (Org25543 0.4–150 nM, read-out: K d (saturation experiments)) came to 7.45 nM.
